According to US10167269B2, “Cockroach attraction-aggregation substance, cockroach aggregation attractant and cockroach controlling agent” (Kyoto University, priority 2013, dated 2019):

These molecules were tested on cockroaches (assay: biological test using the linear track olfactometer (attraction-aggregation activity)). Conditions: Test Example 1; dose 10^2 pg; EPI=(NS-NC)/(NS+NC).
Type: in vivo, American cockroaches
Excerpt: The method for determining the activity of the cockroach attraction-aggregation substance is not particularly limited herein, and the activity may be determined by, for example, a biological test using a linear track olfactometer (FIG. 1).
An olfactometer (linear track olfactometer) is typically an instrument used to conduct bioassays to observe the response of insects to volatiles. The instrument has a bifurcation at which air flow containing an attractant substance attracts the insect subjects (see, e.g., J. Jpn. For. Soc., 89(2), 2007, “An Olfactometer Testing the Olfactory Response of the Japanese Horntail Urocerus japonicus to Volatiles.”, 135-137, and Nogyo Kankyo Kenkyu Sosho, Vol. 17, “Nogyo Seitaikei no Hozen ni Muketa Seibutsu Kino no Katsuyo”, 108-134).
A biological test with a linear track olfactometer will be specifically described below. In FIG. 1, air suction from the top 1 of the central tube allows air to enter from the tops (2a and 2b) of the right and left tubes, thereby air flows are generated from the both sides, flowing through the horizontal tube toward the top of the central tube. The left tube is the control side, and the right tube is the sample side. Insect subjects (7 to 10 day-old larvae) are placed at the bottom 4 of the central tube. Air is then slowly suctioned from the top of the central tube with a pump (2.5 L/min). The insect subjects are allowed to freely move for 5 minutes at 25±1° C. at a relative humidity of 40 to 60% in total darkness. The numbers of the insect subjects that have moved to the control side and to the sample side are counted. The excess proportion index (EPI) is calculated by the following equation: EPI=(NS−NC)/(NS+NC) (where NS is the number of the insect subjects that have moved to the sample side; and NC is the number of the insect subjects that have moved to the control side).
An EPI closer to 1 indicates higher attraction-aggregation activity on cockroaches.
In the examples, the attraction-aggregation activity on cockroaches was determined by a biological test using the above-described linear track olfactometer (FIG. 1).

SMILES | EPI value
CCC1Cc2cc(C)c(C)c(O)c2C(=O)O1 (stereo not drawn) [Example 5, 3,4-dihydro-8-hydroxy-3-ethyl-6,7-dimethyl-1H-2-benzopyran-1-one] | about 0.5

Same assay, conditions: Test Example 1; even at a dose of 10^6 pg

SMILES | attraction-aggregation activity on cockroaches
CCC1Cc2cc(C)c(C)c(OC)c2C(=O)O1 (stereo not drawn) [Comparative Example 1, reference compound] | no activity

Same assay, conditions: Test Example 5; compounds isolated from frass in Example 24

SMILES | attraction-aggregation activity on cockroaches
CC[C@@H]1OC(=O)c2c(ccc(C)c2O)[C@@H]1C (relative stereo) [PLD-D, (cis)-3,4-dihydro-8-hydroxy-4,7-dimethyl-3-ethyl-1H-2-benzopyran-1-one] | high attraction-aggregation activity
CCCC(C)C1Cc2c(C)cc(C)c(O)c2C(=O)O1 (stereo not drawn) [PLD-F, 3,4-dihydro-8-hydroxy-3-(1-methylbutyl)-5,7-dimethyl-1H-2-benzopyran-1-one] | high attraction-aggregation activity
Cc1ccc2c(c1O)C(=O)O[C@@H](C)[C@H]2C (relative stereo) [PLD-B, (cis)-3,4-dihydro-8-hydroxy-3,4,7-trimethyl-1H-2-benzopyran-1-one] | high attraction-aggregation activity
Cc1ccc2c(c1O)C(=O)O[C@H](C)[C@H]2C (relative stereo) [PLD-A, (trans)-3,4-dihydro-8-hydroxy-3,4,7-trimethyl-1H-2-benzopyran-1-one] | high attraction-aggregation activity
CCC(C)C1Cc2c(C)cc(C)c(O)c2C(=O)O1 (stereo not drawn) [PLD-E, 3,4-dihydro-8-hydroxy-3-(1-methylpropyl)-5,7-dimethyl-1H-2-benzopyran-1-one] | high attraction-aggregation activity
CC[C@H]1OC(=O)c2c(ccc(C)c2O)[C@@H]1C (relative stereo) [PLD-C, (trans)-3,4-dihydro-8-hydroxy-4,7-dimethyl-3-ethyl-1H-2-benzopyran-1-one] | high attraction-aggregation activity

Same assay, conditions: Test Examples 1 and 4; doses ranging from 10^-3 pg to 10^6 pg; 7 to 10 day-old larvae, 5 minutes

SMILES | attraction-aggregation activity on cockroaches
Cc1ccc2c(c1O)C(=O)OC2 [Example 18, 7-hydroxy-6-methyl-1(3H)-isobenzofuranone] | showed attraction-aggregation activity
CC1Cc2cccc(O)c2C(=O)O1 (stereo not drawn) [Example 23, mellein] | high attraction-aggregation activity
CCC1Cc2cc(C)c(C)c(O)c2C(=O)O1 (stereo not drawn) [Example 5, 3,4-dihydro-8-hydroxy-3-ethyl-6,7-dimethyl-1H-2-benzopyran-1-one] | high attraction-aggregation activity
Cc1ccc2c(c1O)C(=O)OC1CCCC21 (stereo not drawn) [Example 17, 2,3,3a,9b-tetrahydro-6-hydroxy-7-methyl-cyclopenta[c][2]benzopyran-5(1H)-one] | showed attraction-aggregation activity

Same assay, conditions: Test Examples 2 and 3; doses ranging from 10^-3 pg to 10^3 pg

SMILES | attraction-aggregation activity on cockroaches
CCC1Cc2c(C)cc(C)c(O)c2C(=O)O1 (stereo not drawn) [Example 4, 3,4-dihydro-8-hydroxy-3-ethyl-5,7-dimethyl-1H-2-benzopyran-1-one] | high attraction-aggregation activity
Cc1ccc2c(c1O)C(=O)OC(C)C2 (stereo not drawn) [step 1-4 of Example 1, 3,4-dihydro-8-hydroxy-3,7-dimethyl-1H-2-benzopyran-1-one] | high attraction-aggregation activity
CCC1Cc2ccc(C)c(O)c2C(=O)O1 (stereo not drawn) [Example 3, 3,4-dihydro-8-hydroxy-3-ethyl-7-methyl-1H-2-benzopyran-1-one] | high attraction-aggregation activity
